Results from US4902686A, “Tricyclic heterocyclic compounds and their use in treating benzodiazepin receptor-related ailments” (A/S Ferrosan, priority 1987, dated 1990).

System: benzodiazepine receptors
Experiment: in vivo displacement of 3H-flunitrazepam from brain benzodiazepine receptors in mice
Parameters: species or system mice (female, NMR)
Conditions: i.p. test substance 15 min before 3H-flunitrazepam i.v., dose reducing specific forebrain binding to 50% of control
Text: The pharmaceutical properties of the compounds of the invention can be illustrated by determining their capability for displacing radioactive labelled flunitrazepam from benzodiazepine receptors.
The displacement activity of the compounds of the invention may be found by determining the ED50 value. The ED50 value represents the dose (mg/kg) of a test substance which causes the specific binding of flunitrazepam to benzodiazepine receptors in a living brain to be reduced to 50% of the control value.
Such an in vivo test is carried out as follows:
Principle. Twenty minutes after a dose of ^3 H-flunitrazepam (^3 H-FNM) (200μCi/kg, i.v.) the amount of specific ^3 H-FNM binding to brain benzodiazepine receptors has reached its maximal value.
Test procedure. Suspensions of test substances (2 mg/ml) are prepared in 5% Duphasol-X (TM Duphar, castor oil-ethylene oxide derivative for emulsifying and solubilizing oil and other water-insoluble substances) by sonification for 10 min using a Branson B15 microtip ultrasonifier (setting 7). Groups of three mice (female, NMR, 18-22 grams) are injected with the test substance at 100 mg/kg intraperitoneally. Fifteen minutes after test substance administration the mice are challenged with 4 μCi intravenously of ^3 H-FNM (70-90 Ci/mole) in 200 μl physiological saline. Twenty minutes after ^3 H-FNM administration mice are sacrificed by decapitation, the forebrains rapidly excised (within 30 sec) and homogenized in 12 ml of icecold 25 mM KH2 PO4, pH 7.1, using an Ultra-Turrax homogenizer fitted with an N 10 shaft. Two aliquots of 1 ml are immediately filtered through Whatman GF/C glassfibre filters and washed with 2×5 ml of the above mentioned buffer. The amounts of radioactivity on the filters are determined by conventional scintillation counting. One group of untreated mice serves as control. One to three mice are injected with 25 μg/kg clonazepam i.p. 30 minutes before ^3 H-FNM to determine the amount of non-specific ^3 H-FNM binding, which should be between 8-15% of total binding. When doses of 100 mg/kg inhibit more than 50% of specific ^3 H-flunitrazepam binding; test substances are administered in doses, which are factors of 3.16 times lower than 100 mg/kg. The ED50 for a test substance is defined as that dose which inhibits 50% of specific ^3 H-FNM binding. Specific binding is the amount of binding in controls minus the amount binding in clonazepam-treated mice.
Results. The ED50 value is determined from dose response curves. If only one dose of test substance is administered the ED50 value is calculated as follows, provided that the inhibition of specific binding is within the range of 25-75%: [formula] where Co is specific binding in controls and Cx is specific binding in mice treated with test substance.

SMILES: Cn1c(=O)c2c(-c3nc(C4CC4)no3)ncn2c2cccnc21
- in vivo bind. ED50: 0.9 mg/kg

SMILES: Cn1c(=O)c2c(Oc3ccc(F)cc3)cccc2n2cnc(-c3noc(C4CC4)n3)c12
- in vivo bind. ED50: 2.9 mg/kg

SMILES: CCn1c(=O)c2c(-c3nc(C4CC4)no3)ncn2c2ccccc21
- in vivo bind. ED50: 1.4 mg/kg

SMILES: CCn1c(=O)c2c(-c3noc(C4CC4)n3)ncn2c2cccnc21
- in vivo bind. ED50: 0.7 mg/kg

SMILES: Cc1nc(-c2ncn3c4cccc(C#C[Si](C)(C)C)c4c(=O)n(C)c23)no1 [4,5-Dihydro-4-methyl-3-(5-methyl-1,2,4-oxadiazol-3-yl)-5-oxo-6-trimethylsilylethynyl-imidazo(1,5-a)quinazoline]
- in vivo bind. ED50: 3.7 mg/kg
